The subject of series [1] is Mus musculus. The series is described as follows: Toxicity in DSS-induced acute C57Bl/6J mouse ulcerative colitis model assessed as change in body weight at 50 mg/kg, po qd (reference value: -15.3%). Type of series: organism-based. Conditions: in vivo.
For series [2], the system named is Mus musculus. The series is described as follows: Anti-ulcerative colitis activity in po dosed DSS-induced acute C57Bl/6J mouse ulcerative colitis model assessed as inhibition rate of disease activity index administered as qd measured on day 8. Type of series: functional, organism-based.
Series [3] relates to Mus musculus. The series is described as follows: Anti-ulcerative colitis activity in DSS-induced acute C57Bl/6J mouse ulcerative colitis model assessed as inhibition rate of disease activity index at 200 mg/kg, po qd measured on day 8 relative to control. Type of series: functional. Particulars: 192 h.
In series [4] the test system is Mus musculus. The series is described as follows: Toxicity in DSS-induced acute C57Bl/6J mouse ulcerative colitis model assessed as change in body weight at 200 mg/kg, po qd (reference value: -15.3%). Type of series: organism-based. Conditions: in vivo.
The subject of series [5] is Mus musculus. The series is described as follows: Toxicity in DSS-induced acute C57Bl/6J mouse ulcerative colitis model assessed as change in body weight at 100 mg/kg, po qd (reference value: -15.3%). Format: organism-based. Particulars: in vivo.
Series [6] concerns Mus musculus. The series can be described thus: Anti-ulcerative colitis activity in DSS-induced acute C57Bl/6J mouse ulcerative colitis model assessed as improvement in colon contracture at 50 mg/kg, po qd measured on day 8 (reference value: 41.8%). Format: functional.
The subject of series [7] is Mus musculus. The series is described as follows: Anti-ulcerative colitis activity in DSS-induced acute C57Bl/6J mouse ulcerative colitis model assessed as inhibition rate of disease activity index at 100 mg/kg, po qd measured on day 8 relative to control. Type of series: functional. Particulars: 192 h.
Series [8] deals with T1, X-box-binding protein 1 (Homo sapiens) (UniProt P17861).
T1 sequence (whole entry): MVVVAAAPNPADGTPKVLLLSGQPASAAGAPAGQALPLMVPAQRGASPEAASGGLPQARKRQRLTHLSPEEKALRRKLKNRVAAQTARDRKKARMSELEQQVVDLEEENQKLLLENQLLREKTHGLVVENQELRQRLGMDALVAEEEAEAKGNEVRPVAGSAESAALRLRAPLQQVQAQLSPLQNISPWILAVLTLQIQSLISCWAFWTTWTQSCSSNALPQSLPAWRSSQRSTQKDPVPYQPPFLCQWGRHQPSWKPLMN
The series can be described thus: Transactivation of XBP1 (unknown origin) transfected in rat IEC-6 cells at 10 uM after 48 hrs by dual luciferase reporter gene assay. Type of series: cell-based.

The test system of series [9] is Mus musculus. The series can be described thus: Anti-ulcerative colitis activity in DSS-induced acute C57Bl/6J mouse ulcerative colitis model assessed as improvement in colon contracture at 200 mg/kg, po qd measured on day 8 (reference value: 41.8%). Type of series: functional.
The target of series [10] is T1, X-box-binding protein 1 (Homo sapiens). The series can be described thus: Transactivation of XBP1 (unknown origin) transfected in rat IEC-6 cells at 10 uM after 48 hrs by dual luciferase reporter gene assay relative to con 2. Type of series: cell-based. (In a reporter assay the amount or activity of a reporter protein is the signal.)
Series [11] deals with Mus musculus. The series is described as follows: Anti-ulcerative colitis activity in DSS-induced acute C57Bl/6J mouse ulcerative colitis model assessed as inhibition rate of disease activity index at 50 mg/kg, po qd measured on day 8 relative to control. Particulars: 192 h. Format: functional.
Series [12] concerns Mus musculus. The series is described as follows: Anti-ulcerative colitis activity in DSS-induced acute C57Bl/6J mouse ulcerative colitis model assessed as improvement in colon contracture at 100 mg/kg, po qd measured on day 8 (reference value: 41.8%). Format: functional.
Series [13] is filed under the species Mus musculus. The series can be described thus: Anti-ulcerative colitis activity in DSS-induced acute C57Bl/6J mouse ulcerative colitis model. Format: functional, organism-based.
For series [14], the species on record is Mus musculus. The series is described as follows: Toxicity in C57Bl/6J mouse. Type of series: organism-based. Conditions: in vivo.
Series [15] can be described thus: Cytotoxicity against rat IEC-6 cells assessed as cell survival at 10 uM after 24 to 72 hrs by MTT assay. Particulars: iec-6, 10 µM. Type of series: cell-based. For orientation: Formazan colour is commonly taken as a measure of viable cells.
Series [16] deals with Mus musculus. The series is described as follows: Toxicity in DSS-induced acute C57Bl/6J mouse ulcerative colitis model assessed as change in body weight at 300 mg/kg, po qd (reference value: -15.3%). Type of series: organism-based. Particulars: in vivo.
For series [17], the system named is Mus musculus. The series is described as follows: Anti-ulcerative colitis activity in DSS-induced acute C57Bl/6J mouse ulcerative colitis model assessed as inhibition rate of disease activity index at 300 mg/kg, po qd measured on day 8 relative to control. Type of series: functional. Particulars: 192 h.
Series [18] deals with Mus musculus. The series is described as follows: Anti-ulcerative colitis activity in DSS-induced acute C57Bl/6J mouse ulcerative colitis model assessed as improvement in number of visible colitis lesions at 300 mg/kg, po qd measured on day 8. Type of series: functional, organism-based.
Series [19] has as its system Mus musculus. The series can be described thus: Anti-ulcerative colitis activity in DSS-induced acute C57Bl/6J mouse ulcerative colitis model assessed as colon macroscopic damage index at 300 mg/kg, po qd measured on day 8 (reference value: 5.69 +/- 1.12). Type of series: functional.
The test system of series [20] is Mus musculus. The series is described as follows: Anti-ulcerative colitis activity in DSS-induced acute C57Bl/6J mouse ulcerative colitis model assessed as improvement in colon contracture at 300 mg/kg, po qd measured on day 8 (reference value: 41.8%). Type of series: functional.
Series [21] has as its system Mus musculus. The series can be described thus: Anti-ulcerative colitis activity in DSS-induced acute C57Bl/6J mouse ulcerative colitis model assessed as recovery of each muscle layer structure at 300 mg/kg, po qd measured on day 8. Format: functional, organism-based.

Structures are written as SMILES. Calls of active or inactive are those of the source. No cut-off for these calls is given here.

Usually inhibition in vivo stands for the change of the read-out against control, counted positive when it falls. With `CC(=O)CC1c2c(ccc3c2OCO3)C=C2c3cc4c(cc3CCN21)OCO4` (racemic), the Activity with Mus musculus [1] is -12.9%; with Mus musculus [4] it was 3.33%; with Mus musculus [5], 3.26%; in the series with Mus musculus [6] it was 38.3%; with Mus musculus [9] it was 20.4%; with Mus musculus [12], 28.8%. In addition, the inhibition entry in the series with Mus musculus [2] is “Dose-dependent effect”. Moreover, the inhibition in vivo at 200 mg/kg in the series on Mus musculus [3] amounted to 63.8%. The inhibition in vivo at 100 mg/kg with Mus musculus [7] came out at 60.3%. In addition, the outcome in [8] was Active. The fold change (FC) in series [10] is 2.06. In the series on Mus musculus [11], the inhibition in vivo at 50 mg/kg came out at 36.4%.
On to `FC(F)(F)c1cccc(CC2=C3c4cc5c(cc4CCN3Cc3c2ccc2c3OCO2)OCO5)c1`, for which the outcome in [8] was Active.
Consider `Fc1ccccc1Cc1c2[n+](cc3c4c(ccc13)OCO4)CCc1cc3c(cc1-2)OCO3`, for which the result in the series listed under Mus musculus [13] was inactive. Also, in [8], the result was Active.
Consider `CC1=C2c3cc4c(cc3CCN2Cc2c1ccc1c2OCO1)OCO4`, for which the result in the series listed under Mus musculus [13] was inactive. Also, the outcome in [8] was Active.
For `N#CC1c2c(ccc3c2OCO3)C=C2c3cc4c(cc3CCN21)OCO4` (racemic), the Activity result in the series listed under Mus musculus [14] was “Toxic”. In addition, in series [8], the outcome was Active.
`COc1ccc(Cc2c3[n+](cc4c5c(ccc24)OCO5)CCc2cc4c(cc2-3)OCO4)cc1`: the outcome in the series filed under Mus musculus [13] was inactive. In [8], the outcome was Active.
The corresponding values for `O=c1c2c3c(ccc2cc2n1CCc1cc4c(cc1-2)OCO4)OCO3` are “inactive” and “Active”.
With `N#Cc1ccc(CC2=C3c4cc5c(cc4CCN3Cc3c2ccc2c3OCO2)OCO5)cc1`, the outcome in series [8] was Active.
Same read-out and setting: with `Fc1ccccc1CC1=C2c3cc4c(cc3CCN2Cc2c1ccc1c2OCO1)OCO4` the entry was “Active”.
Regarding `Cc1ccc(Cc2c3[n+](cc4c5c(ccc24)OCO5)CCc2cc4c(cc2-3)OCO4)cc1.[Cl-]`, the Activity entry in series [15] is “Toxic”.
Turning to `N#Cc1ccc(Cc2c3[n+](cc4c5c(ccc24)OCO5)CCc2cc4c(cc2-3)OCO4)cc1`, the result in the series filed under Mus musculus [13] was inactive. In [8], the outcome was Active.
Consider `C=C(C(=O)C1CC1)c1c2c3c(ccc2c(C)c2[n+]1CCc1cc4c(cc1-2)OCO4)OCO3`, for which the outcome in series [8] was inactive.
As for `Fc1ccc(CC2=C3c4cc5c(cc4CCN3Cc3c2ccc2c3OCO2)OCO5)cc1`, the result in series [8] was Active.
As for `Fc1ccc(Cc2c3[n+](cc4c5c(ccc24)OCO5)CCc2cc4c(cc2-3)OCO4)c(F)c1`, in the series filed under Mus musculus [13], the outcome was inactive. The outcome in [8] was Active.
As to `Fc1cccc(CC2=C3c4cc5c(cc4CCN3Cc3c2ccc2c3OCO2)OCO5)c1`, the outcome in series [8] was Active.
For the molecule `Fc1ccc(Cc2c3[n+](cc4c5c(ccc24)OCO5)CCc2cc4c(cc2-3)OCO4)cc1`, the result in the series filed under Mus musculus [13] was inactive. Besides, the outcome in [8] was Active.
With `C=C(C(=O)c1ccc(CC(C)C)cc1)c1c2c3c(ccc2c(C)c2[n+]1CCc1cc4c(cc1-2)OCO4)OCO3`, the result in series [8] was inactive.
With `C1=CC2CC=CCN2CC1` (centres undefined), in series [8], the result was Active.
Turning to `Cc1c2[n+](cc3c4c(ccc13)OCO4)CCc1cc3c(cc1-2)OCO3`, the outcome in the series listed under Mus musculus [13] was inactive. For the same molecule, the result in series [8] was Active.
On to `C=C(C(=O)CCC)c1c2c3c(ccc2c(C)c2[n+]1CCc1cc4c(cc1-2)OCO4)OCO3`, for which the outcome in series [8] was inactive.
On the same count and under the same terms, with `C=C(C(=O)C(C)(C)C)c1c2c3c(ccc2c(C)c2[n+]1CCc1cc4c(cc1-2)OCO4)OCO3` the entry was “inactive”.
Regarding `c1cc2c(c3c1CC1c4cc5c(cc4CCN1C3)OCO5)OCO2` (centres undefined), the result in the series listed under Mus musculus [13] was inactive.
Turning to `FC(F)(F)c1cccc(Cc2c3[n+](cc4c5c(ccc24)OCO5)CCc2cc4c(cc2-3)OCO4)c1.[Cl-]`, the Activity result in series [15] is on record as “Toxic”.
Consider `Fc1ccc(CC2=C3c4cc5c(cc4CCN3Cc3c2ccc2c3OCO2)OCO5)c(F)c1`, for which the result in [8] was Active.
Same read-out and setting: in the case of `COc1ccc(CC2=C3c4cc5c(cc4CCN3Cc3c2ccc2c3OCO2)OCO5)cc1` it was “Active”; in that of `Cc1ccc(CC2=C3c4cc5c(cc4CCN3Cc3c2ccc2c3OCO2)OCO5)cc1`, “Active”.
In the case of `C=C(C(=O)CC)c1c2c3c(ccc2c(C)c2[n+]1CCc1cc4c(cc1-2)OCO4)OCO3`, the result in the series listed under Mus musculus [13] was inactive.
Turning to `C=C(C(C)=O)c1c2c3c(ccc2c(C)c2[n+]1CCc1cc4c(cc1-2)OCO4)OCO3`, in the series listed under Mus musculus [13], the outcome was inactive.
On to `C=C(C(=O)CCCC)c1c2c3c(ccc2c(C)c2[n+]1CCc1cc4c(cc1-2)OCO4)OCO3`, for which the outcome in series [8] was inactive.
As to `O=C(O)c1cc(/N=N/c2ccc(S(=O)(=O)Nc3ccccn3)cc2)ccc1O` [SULFASALAZINE], the values for the Activity in the series on Mus musculus [16] and with Mus musculus [20] were -8.42% and 30%, respectively. For the same molecule, the inhibition in vivo at 300 mg/kg in the series with Mus musculus [17] was found to be 30.6%. For the same molecule, the outcome in the series with Mus musculus [18] and in the series on Mus musculus [21] was Active. Besides, in the series with Mus musculus [19], the Activity_index is listed as 3.98.
In the case of `C=C(C(=O)c1ccc(OC)cc1)c1c2c3c(ccc2c(C)c2[n+]1CCc1cc4c(cc1-2)OCO4)OCO3`, the outcome in series [8] was inactive.
For the molecule `Fc1cccc(Cc2c3[n+](cc4c5c(ccc24)OCO5)CCc2cc4c(cc2-3)OCO4)c1`, the outcome in the series filed under Mus musculus [13] was inactive. In addition, in series [8], the result was Active.
On to `C=C(C(=O)C(C)C)c1c2c3c(ccc2c(C)c2[n+]1CCc1cc4c(cc1-2)OCO4)OCO3`, for which the outcome in series [8] was inactive.

The values above are taken from ChEMBL document CHEMBL3611992, “Synthesis and Structure-Activity Relationships of Quaternary Coptisine Derivatives as Potential Anti-ulcerative Colitis Agents” (J Med Chem, 2015).
